The results in this text go back to patent publication US12606552B2, “Bifunctional compound, preparation method therefor, and use thereof” (SUZHOU KINTOR PHARMACEUTICALS, INC., priority 2020, dated 2026).

This assay concerns the target T1, AR (Homo sapiens, UniProt P10275, T878A).
T1 sequence (P10275 1-920 T878A): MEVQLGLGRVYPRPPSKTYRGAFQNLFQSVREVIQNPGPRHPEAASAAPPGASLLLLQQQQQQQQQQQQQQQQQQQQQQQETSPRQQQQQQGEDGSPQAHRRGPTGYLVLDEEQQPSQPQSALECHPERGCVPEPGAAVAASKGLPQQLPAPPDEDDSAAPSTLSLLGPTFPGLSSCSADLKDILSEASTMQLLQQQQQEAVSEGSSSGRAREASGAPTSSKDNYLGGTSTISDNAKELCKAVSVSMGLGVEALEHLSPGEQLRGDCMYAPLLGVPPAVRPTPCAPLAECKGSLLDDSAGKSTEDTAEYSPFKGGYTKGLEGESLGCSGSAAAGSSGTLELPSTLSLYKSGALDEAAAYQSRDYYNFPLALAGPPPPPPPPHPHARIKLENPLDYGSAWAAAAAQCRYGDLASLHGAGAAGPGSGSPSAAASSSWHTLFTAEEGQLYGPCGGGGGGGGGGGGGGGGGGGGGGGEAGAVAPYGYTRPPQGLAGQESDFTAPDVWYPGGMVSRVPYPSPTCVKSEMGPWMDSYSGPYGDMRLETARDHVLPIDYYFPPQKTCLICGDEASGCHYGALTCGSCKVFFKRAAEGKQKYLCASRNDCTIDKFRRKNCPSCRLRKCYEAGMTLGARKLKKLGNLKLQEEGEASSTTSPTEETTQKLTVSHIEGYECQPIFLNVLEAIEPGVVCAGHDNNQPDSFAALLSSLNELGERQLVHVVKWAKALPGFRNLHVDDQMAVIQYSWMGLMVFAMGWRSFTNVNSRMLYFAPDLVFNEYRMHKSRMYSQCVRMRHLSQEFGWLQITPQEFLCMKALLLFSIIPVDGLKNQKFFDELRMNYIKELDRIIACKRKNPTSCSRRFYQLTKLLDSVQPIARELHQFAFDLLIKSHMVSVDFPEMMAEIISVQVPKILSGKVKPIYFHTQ
The assay is described as follows: Degradation effect on AR protein activity in prostate cancer cell line Lncap by ELISA method. In kind it is cell-based. On the set-up: Degradation Effect of Compounds on AR Protein Activity in Prostate Cancer Cell Line Lncap by ELISA Method; endogenous in cells; host or cells: LNCaP. The settings on record: 24 hours, Total Androgen Receptor Sandwich ELISA, read-out: IC50 (the drug concentration at 50% inhibition) of AR protein. As to the method:
Activity Assay Example 6: Determination of the Degradation Effect of Compounds on AR Protein Activity in Prostate Cancer Cell Line Lncap by ELISA Method
• LNCaP: 1.5*10^LNCaP (human prostate cancer) was purchased from the Chinese Academy of Sciences Cell Bank and cultured in RPMI-1640 medium containing 10% fetal bovine serum. Lncap cells were cultured at 37° C. and 5% CO2 in a humidified incubator. When the coverage reached about 80%, the cells were passaged at a ratio of 1:3. • ELISA kit: Total Androgen Receptor Sandwich ELISA Kit (Brand CST, Cat #12850). 2. Test Method 2.1 Cell Plating
After the cells were centrifuged, they were diluted to 1.5×10^4 cells/100 ul with fresh medium and plated into a 96-well plate with 100 ul per well.
Test compound preparation: The compounds were weighed and diluted with DMSO to stock solution with a concentration of 10 mM for later use. According to the experimental requirements, the drug was diluted from 2 uM, 3 fold dilution for 10 point series, and finally 2 μl of the drug was added to each well, and 2 μl of DMSO was added to the control group.
2.3 After 24 hours, the medium was removed, and the cells were washed once with ice-cold 1×PBS. Then the PBS was removed, and 0.5 ml ice-cold 1× Cell Lysis Buffer containing 1 mM PMSF was added to each well plate and incubated on ice for 20 minutes. […]

On to `Cc1ncsc1-c1ccc(CNC(=O)[C@@H]2C[C@@H](O)CN2C(=O)[C@@H](NC(=O)COCCCCOc2ccc(-c3ccc(N4C(=S)N(c5ccc(C#N)c(C(F)(F)F)c5F)C(=O)C4(C)C)cn3)cc2)C(C)(C)C)cc1` [Compound A46], for which the DC50 was determined as 49 nM.
